According to US8192962B2, “Processes for detecting toxic substances” (Daikin Industries, Ltd., priority 2001, dated 2012):

Test system: Detoxification protein genes
Test: DNA chip mRNA expression in yeast, detoxification protein genes (Table 8)
Assay type: cell-based, Saccharomyces cerevisiae S288C
Summary of the method: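 First, S288C yeast grown in YPD at 25° C. are dosed in log phase with one toxicant (growth-inhibiting, not lethal) for 2 h. Next, total RNA is extracted and poly(A) mRNA isolated and reverse-transcribed with Cy3/Cy5-dUTP. Finally, whole-genome chip fluorescence is read relative to unexposed cells.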

`[Cl][Hg][Cl]` [(3), HgCl2] was tested, and the “The level of expressed mRNA in the presence of chemical substance/The level of expressed mRNA in the absence of chemical substance” value (yeast gene YBL064C) was 3.9, the “The level of expressed mRNA in the presence of chemical substance/The level of expressed mRNA in the absence of chemical substance” value (yeast gene YBR008C) was 4.9 and the “The level of expressed mRNA in the presence of chemical substance/The level of expressed mRNA in the absence of chemical substance” value (yeast gene YBR145W) was 2.8. For the same compound, the “The level of expressed mRNA in the presence of chemical substance/The level of expressed mRNA in the absence of chemical substance” value (yeast gene YBR244W) was 2.0, the “The level of expressed mRNA in the presence of chemical substance/The level of expressed mRNA in the absence of chemical substance” value (yeast gene YBR293W) was 1.0 and the “The level of expressed mRNA in the presence of chemical substance/The level of expressed mRNA in the absence of chemical substance” value (yeast gene YCL035C) was 1.5. For the same compound, the “The level of expressed mRNA in the presence of chemical substance/The level of expressed mRNA in the absence of chemical substance” value (yeast gene YCL069W) was 0.9, the “The level of expressed mRNA in the presence of chemical substance/The level of expressed mRNA in the absence of chemical substance” value (yeast gene YCR083W) was 1.5 and the “The level of expressed mRNA in the presence of chemical substance/The level of expressed mRNA in the absence of chemical substance” value (yeast gene YDL100C) was 1.1. The “The level of expressed mRNA in the presence of chemical substance/The level of expressed mRNA in the absence of chemical substance” value (yeast gene YDL168W) was 2.1, the “The level of expressed mRNA in the presence of chemical substance/The level of expressed mRNA in the absence of chemical substance” value (yeast gene YDR256C) was 0.7 and the “The level of expressed mRNA in the presence of chemical substance/The level of expressed mRNA in the absence of chemical substance” value (yeast gene YDR453C) was 4.4. The “The level of expressed mRNA in the presence of chemical substance/The level of expressed mRNA in the absence of chemical substance” value (yeast gene YDR513W) was 2.3, the “The level of expressed mRNA in the presence of chemical substance/The level of expressed mRNA in the absence of chemical substance” value (yeast gene YDR538W) was 2.4 and the “The level of expressed mRNA in the presence of chemical substance/The level of expressed mRNA in the absence of chemical substance” value (yeast gene YEL027W) was 3.4. For the same compound, the “The level of expressed mRNA in the presence of chemical substance/The level of expressed mRNA in the absence of chemical substance” value (yeast gene YEL065W) was 1.2, the “The level of expressed mRNA in the presence of chemical substance/The level of expressed mRNA in the absence of chemical substance” value (yeast gene YER185W) was 2.1 and the “The level of expressed mRNA in the presence of chemical substance/The level of expressed mRNA in the absence of chemical substance” value (yeast gene YFL050C) was 1.1. For the same compound, the “The level of expressed mRNA in the presence of chemical substance/The level of expressed mRNA in the absence of chemical substance” value (yeast gene YGL013C) was 0.8, the “The level of expressed mRNA in the presence of chemical substance/The level of expressed mRNA in the absence of chemical substance” value (yeast gene YGL254W) was 0.8 and the “The level of expressed mRNA in the presence of chemical substance/The level of expressed mRNA in the absence of chemical substance” value (yeast gene YGR088W) was 7.7. The “The level of expressed mRNA in the presence of chemical substance/The level of expressed mRNA in the absence of chemical substance” value (yeast gene YGR138C) was 1.0, the “The level of expressed mRNA in the presence of chemical substance/The level of expressed mRNA in the absence of chemical substance” value (yeast gene YGR197C) was 2.5 and the “The level of expressed mRNA in the presence of chemical substance/The level of expressed mRNA in the absence of chemical substance” value (yeast gene YGR209C) was 3.5. For the same compound, the “The level of expressed mRNA in the presence of chemical substance/The level of expressed mRNA in the absence of chemical substance” value (yeast gene YGR224W) was 1.2, the “The level of expressed mRNA in the presence of chemical substance/The level of expressed mRNA in the absence of chemical substance” value (yeast gene YHL040C) was 1.5 and the “The level of expressed mRNA in the presence of chemical substance/The level of expressed mRNA in the absence of chemical substance” value (yeast gene YHL047C) was 1.0. For the same compound, the “The level of expressed mRNA in the presence of chemical substance/The level of expressed mRNA in the absence of chemical substance” value (yeast gene YHR008C) was 4.8, the “The level of expressed mRNA in the presence of chemical substance/The level of expressed mRNA in the absence of chemical substance” value (yeast gene YHR048W) was 1.4 and the “The level of expressed mRNA in the presence of chemical substance/The level of expressed mRNA in the absence of chemical substance” value (yeast gene YHR053C) was 0.7. For the same compound, the “The level of expressed mRNA in the presence of chemical substance/The level of expressed mRNA in the absence of chemical substance” value (yeast gene YHR055C) was 0.8, the “The level of expressed mRNA in the presence of chemical substance/The level of expressed mRNA in the absence of chemical substance” value (yeast gene YIR002C) was 0.5 and the “The level of expressed mRNA in the presence of chemical substance/The level of expressed mRNA in the absence of chemical substance” value (yeast gene YIR038C) was 4.6. For the same compound, the “The level of expressed mRNA in the presence of chemical substance/The level of expressed mRNA in the absence of chemical substance” value (yeast gene YJL101C) was 2.1, the “The level of expressed mRNA in the presence of chemical substance/The level of expressed mRNA in the absence of chemical substance” value (yeast gene YJR104C) was 2.9 and the “The level of expressed mRNA in the presence of chemical substance/The level of expressed mRNA in the absence of chemical substance” value (yeast gene YKL026C) was 1.2. The “The level of expressed mRNA in the presence of chemical substance/The level of expressed mRNA in the absence of chemical substance” value (yeast gene YKL064W) was 0.4, the “The level of expressed mRNA in the presence of chemical substance/The level of expressed mRNA in the absence of chemical substance” value (yeast gene YKR066C) was 5.5 and the “The level of expressed mRNA in the presence of chemical substance/The level of expressed mRNA in the absence of chemical substance” value (yeast gene YKR105C) was 0.9. For the same compound, the “The level of expressed mRNA in the presence of chemical substance/The level of expressed mRNA in the absence of chemical substance” value (yeast gene YKR106W) was 2.1, the “The level of expressed mRNA in the presence of chemical substance/The level of expressed mRNA in the absence of chemical substance” value (yeast gene YLL028W) was 4.6 and the “The level of expressed mRNA in the presence of chemical substance/The level of expressed mRNA in the absence of chemical substance” value (yeast gene YLL057C) was 1.8. The “The level of expressed mRNA in the presence of chemical substance/The level of expressed mRNA in the absence of chemical substance” value (yeast gene YLL060C) was 2.3, the “The level of expressed mRNA in the presence of chemical substance/The level of expressed mRNA in the absence of chemical substance” value (yeast gene YLR043C) was 2.0 and the “The level of expressed mRNA in the presence of chemical substance/The level of expressed mRNA in the absence of chemical substance” value (yeast gene YLR046C) was 0.9. The “The level of expressed mRNA in the presence of chemical substance/The level of expressed mRNA in the absence of chemical substance” value (yeast gene YML028W) was 4.4, the “The level of expressed mRNA in the presence of chemical substance/The level of expressed mRNA in the absence of chemical substance” value (yeast gene YML116W) was 1.5 and the “The level of expressed mRNA in the presence of chemical substance/The level of expressed mRNA in the absence of chemical substance” value (yeast gene YMR015C) was 1.9. The “The level of expressed mRNA in the presence of chemical substance/The level of expressed mRNA in the absence of chemical substance” value (yeast gene YMR038C) was 1.8, the “The level of expressed mRNA in the presence of chemical substance/The level of expressed mRNA in the absence of chemical substance” value (yeast gene YNL239W) was 2.4 and the “The level of expressed mRNA in the presence of chemical substance/The level of expressed mRNA in the absence of chemical substance” value (yeast gene YNL241C) was 4.3. The “The level of expressed mRNA in the presence of chemical substance/The level of expressed mRNA in the absence of chemical substance” value (yeast gene YNL259C) was 1.1, the “The level of expressed mRNA in the presence of chemical substance/The level of expressed mRNA in the absence of chemical substance” value (yeast gene YOL158C) was 2.4 and the “The level of expressed mRNA in the presence of chemical substance/The level of expressed mRNA in the absence of chemical substance” value (yeast gene YOR031W) was 1.3. The “The level of expressed mRNA in the presence of chemical substance/The level of expressed mRNA in the absence of chemical substance” value (yeast gene YOR153W) was 5.1, the “The level of expressed mRNA in the presence of chemical substance/The level of expressed mRNA in the absence of chemical substance” value (yeast gene YOR247W) was 3.6 and the “The level of expressed mRNA in the presence of chemical substance/The level of expressed mRNA in the absence of chemical substance” value (yeast gene YOR251C) was 1.3. The “The level of expressed mRNA in the presence of chemical substance/The level of expressed mRNA in the absence of chemical substance” value (yeast gene YOR273C) was 1.7, the “The level of expressed mRNA in the presence of chemical substance/The level of expressed mRNA in the absence of chemical substance” value (yeast gene YPL163C) was 1.4 and the “The level of expressed mRNA in the presence of chemical substance/The level of expressed mRNA in the absence of chemical substance” value (yeast gene YPR200C) was 0.8.
